Reference: PubChem BioAssay (NCI)
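Method: 48-hour compound exposure of cells in 96-well plates, five concentrations, linear interpolation of endpoints. Definition used: TGI = concentration required for complete inhibition of growth.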

Experiments:
Test in all cases: DTP human tumour cell line panel, 48 h
TK-10 renal = system: TK-10 renal
SNB-75 CNS = system: SNB-75 CNS
PC-3 prostate = system: PC-3 prostate
NCI-H522 lung = system: NCI-H522 lung
M14 melanoma = system: M14 melanoma
SK-MEL-28 melanoma = system: SK-MEL-28 melanoma
SNB-19 CNS = system: SNB-19 CNS
T-47D breast = system: T-47D breast
OVCAR-8 ovarian = system: OVCAR-8 ovarian
NCI/ADR-RES ovarian = system: NCI/ADR-RES ovarian
KM12 colon = system: KM12 colon
BT-549 breast = system: BT-549 breast
MALME-3M melanoma = system: MALME-3M melanoma
SK-MEL-5 melanoma = system: SK-MEL-5 melanoma
K-562 leukemia = system: K-562 leukemia
A549 NSCLC = system: A549 NSCLC
HCC-2998 colon = system: HCC-2998 colon
HCT-116 colon = system: HCT-116 colon
NCI-H460 lung = system: NCI-H460 lung
SK-OV-3 ovarian = system: SK-OV-3 ovarian

SMILES	TGI (TK-10 renal) [µM]	TGI (SNB-75 CNS) [µM]	TGI (PC-3 prostate) [µM]	TGI (NCI-H522 lung) [µM]	TGI (M14 melanoma) [µM]	TGI (SK-MEL-28 melanoma) [µM]	TGI (SNB-19 CNS) [µM]	TGI (T-47D breast) [µM]	TGI (OVCAR-8 ovarian) [µM]	TGI (NCI/ADR-RES ovarian) [µM]	TGI (KM12 colon) [µM]	TGI (BT-549 breast) [µM]	TGI (MALME-3M melanoma) [µM]	TGI (SK-MEL-5 melanoma) [µM]	TGI (K-562 leukemia) [µM]	TGI (A549 NSCLC) [µM]	TGI (HCC-2998 colon) [µM]	TGI (HCT-116 colon) [µM]	TGI (NCI-H460 lung) [µM]	TGI (SK-OV-3 ovarian) [µM]
OC(Cc1ccc2ccccc2n1)(C(F)(F)Cl)C(F)(F)Cl	> 10	> 10	> 10	> 10	> 10	> 10	> 10	> 10	> 10	> 10	> 10	> 10	> 10	> 10	> 10	> 10	> 10	> 10	> 10	> 10
CCN(CC)c1ccc2cc(C(=O)NCc3ccccc3)c(=N)oc2c1	> 100	> 100	> 100	97.3	> 100	> 100	> 100	> 28.6	> 100	> 100	> 100	> 100	63.6	> 100	> 26	> 100	> 100	> 100	> 100	> 100
CC(C)CC(NP(=O)(O)OC1OC(C)C(O)C(O)C1O)C(=O)NC(Cc1c[nH]c2ccccc12)C(=O)O (configuration not stated)		> 100	> 100	> 100	> 100	> 100	> 100	> 100	> 100	> 100	> 100	> 100	> 100	> 100	> 100	> 100	> 100	> 100	> 100	> 100
N#Cc1ncn(CCO)c1N	> 100	> 100	> 100	> 100	> 100	> 100	> 100	> 100	> 100	> 100	> 100	> 100	> 100	> 100	> 100	> 100	> 100	> 100	> 100	> 100
CCN(CC)c1ccc(C2Nc3ccc4ccccc4c3C3=C2C(=O)CCC3)cc1 (configuration not stated)		50.5	> 100		> 100	> 100	> 100	> 100	38.3	> 100	> 100	> 100	> 100		> 100	> 100	> 100	> 100	> 100	> 100
COc1cc(C2SCC(=O)N2c2ccc(NC(C)=O)cc2)cc(OC)c1OC (configuration not stated)	> 100		> 100	> 100	> 100	> 100	> 100	> 100	> 100	> 100	> 100	> 100		> 100	> 100	> 100	> 100	> 100	> 100	> 100
CCN1CCN(c2nc3ccccc3nc2C(=O)c2ccc(OC)c(OC)c2)CC1	87.5	30.1	> 100	27.9	31.3	27.3	88.2	> 100	29.9	3.39	53.2	65.6	36.5		34.1	28.3	9.71	19.7	50.2	24.5
CCCCC(/C=C\COC1CCCCO1)=C/C(=O)OCC (configuration not stated)	> 100	> 100	> 100	> 100	> 100	> 100	> 100	> 100	> 100	> 100	> 100	> 100	> 100	> 100	> 100	> 100	> 100	> 100	> 100	> 100
CN(C)/C=N\c1nncc2[nH]cnc12	> 100	> 100	> 100	> 100	> 100	> 100		> 100	> 100	> 100	> 100	> 100	> 100	> 100	> 100	> 100	> 100	> 100		> 100
CC(=O)C1(C)CC(C#N)(C#N)C(C#N)=C1N (configuration not stated)	> 100	> 100	> 100	> 100	> 100		> 100	> 100	> 100	> 100	> 100	> 100	> 100	> 100	> 100	> 100	> 100	> 100		> 100
N/C(=N\N=C\c1cc(I)cc(I)c1O)NO	> 100		> 100	> 100	44.2	> 100	> 100	> 100	> 100	8.41	> 100	> 100	56.7	> 100	> 100	> 100	> 100	76.2	> 100	> 100
O=c1cc(NNc2ccccc2F)[nH]c(=O)[nH]1	27.5	72.5	32.9	31.5	31.5	35.1	> 100	18		31.4	28.7	31.8	33.3	49.5	57.6	> 100	34.9	30.6	2.3	60.8
